Laboratory results: ChEMBL document CHEMBL4330132, “5-Keto-3-cyano-2,4-diaminothiophenes as selective maternal embryonic leucine zipper kinase inhibitors” (Bioorg Med Chem Lett, 2019)

Legend:
[1] = test system: Tyrosine-protein kinase ABL1 (Homo sapiens), P00519 [F317L]; experiment: Binding affinity to human non-phosphorylated ABL1 F317L mutant (S229 to K512 residues) expressed in mammalian expression system assessed as residual binding level at 1 uM by Kinomescan method relative to control
[2] = biological target: Mitogen-activated protein kinase kinase kinase 5 (Homo sapiens) (UniProt Q99683); experiment: Binding affinity to wild-type human partial length ASK1 (E648 to S964 residues) expressed in bacterial expression system assessed as residual binding level at 1 uM by Kinomescan method relative to control
[3] = biological target: Serine/threonine-protein kinase BRSK2 (Homo sapiens) (UniProt Q8IWQ3); experiment: Binding affinity to wild-type human full length BRSK2 (M1 to L674 residues) expressed in bacterial expression system assessed as residual binding level at 1 uM by Kinomescan method relative to control
[4] = biological target: Dual specificity protein kinase CLK4 (Homo sapiens) (UniProt Q9HAZ1); experiment: Binding affinity to wild-type human partial length CLK4 (R135 to K481 residues) expressed in bacterial expression system assessed as residual binding level at 1 uM by Kinomescan method relative to control
[5] = biological target: Serine/threonine-protein kinase DCLK3 (Homo sapiens) (UniProt Q9C098); experiment: Binding affinity to wild-type human partial length DCAMKL3 (E140 to V628 residues) expressed in bacterial expression system assessed as residual binding level at 1 uM by Kinomescan method relative to control
[6] = biological target: Mitogen-activated protein kinase 4 (Homo sapiens) (UniProt P31152); experiment: Binding affinity to wild-type human partial length ERK4 (M1 to L365 residues) expressed in bacterial expression system assessed as residual binding level at 1 uM by Kinomescan method relative to control
[7] = biological target: Mitogen-activated protein kinase 7 (Homo sapiens) (UniProt Q13164); experiment: Binding affinity to wild-type human partial length ERK5 (M1 to A409 residues) expressed in bacterial expression system assessed as residual binding level at 1 uM by Kinomescan method relative to control
[8] = biological target: Fibroblast growth factor receptor 2 (Homo sapiens) (UniProt P21802); experiment: Binding affinity to wild-type human partial length FGFR2 (D457 to E769 residues) expressed in bacterial expression system assessed as residual binding level at 1 uM by Kinomescan method relative to control
[9] = biological target: Interleukin-1 receptor-associated kinase 4 (Homo sapiens) (UniProt Q9NWZ3); experiment: Binding affinity to wild-type human partial length IRAK4 (M1 to S460 residues) expressed in mammalian expression system assessed as residual binding level at 1 uM by Kinomescan method relative to control
[10] = biological target: Mitogen-activated protein kinase kinase kinase kinase 4 (Homo sapiens) (UniProt O95819); experiment: Binding affinity to wild-type human partial length MAP4K4 (M1 to R310 residues) expressed in bacterial expression system assessed as residual binding level at 1 uM by Kinomescan method relative to control
[11] = biological target: MAP/microtubule affinity-regulating kinase 4 (Homo sapiens) (UniProt Q96L34); experiment: Binding affinity to wild-type human partial length MARK4 (K29 to G340 residues) expressed in bacterial expression system assessed as residual binding level at 1 uM by Kinomescan method relative to control
[12] = test system: Hepatocyte growth factor receptor (Homo sapiens), P08581 [Y1235D]; experiment: Binding affinity to human partial length MET Y1235D mutant (D1010 to S1367 residues) expressed in bacterial expression system assessed as residual binding level at 1 uM by Kinomescan method relative to control
[13] = biological target: MAP kinase-interacting serine/threonine-protein kinase 1 (Homo sapiens) (UniProt Q9BUB5); experiment: Binding affinity to wild-type human full length MKNK1 (M1 to L424 residues) expressed in mammalian expression system assessed as residual binding level at 1 uM by Kinomescan method relative to control
[14] = biological target: Myosin light chain kinase (Homo sapiens) (UniProt Q32MK0); experiment: Binding affinity to wild-type human partial length MLCK (D488 to K800 residues) expressed in bacterial expression system assessed as residual binding level at 1 uM by Kinomescan method relative to control
[15] = biological target: Cyclin-dependent kinase 17 (Homo sapiens) (UniProt Q00537); experiment: Binding affinity to wild-type human full length PCTK2 (M1 to F523 residues) expressed in bacterial expression system assessed as residual binding level at 1 uM by Kinomescan method relative to control
[16] = biological target: Cyclin-dependent kinase 18 (Homo sapiens) (UniProt Q07002); experiment: Binding affinity to wild-type human full length PCTK3 (M3 to F474 residues) expressed in bacterial expression system assessed as residual binding level at 1 uM by Kinomescan method relative to control
[17] = test system: Phosphatidylinositol 4,5-bisphosphate 3-kinase catalytic subunit alpha isoform (Homo sapiens), P42336 [C420R]; experiment: Binding affinity to human partial length PIK3CA C420R mutant (R108 to N1068 residues) expressed in mammalian expression system assessed as residual binding level at 1 uM by Kinomescan method relative to control
[18] = biological target: Serine/threonine-protein kinase pim-3 (Homo sapiens) (UniProt Q86V86); experiment: Binding affinity to wild-type human partial length PIM3 (G16 to A317 residues) expressed in bacterial expression system assessed as residual binding level at 1 uM by Kinomescan method relative to control
[19] = biological target: Serine/threonine-protein kinase N2 (Homo sapiens) (UniProt Q16513); experiment: Binding affinity to wild-type human partial length PKN2 (E634 to C984 residues) expressed in bacterial expression system assessed as residual binding level at 1 uM by Kinomescan method relative to control
[20] = biological target: Serine/threonine-protein kinase D1 (Homo sapiens) (UniProt Q15139); experiment: Binding affinity to wild-type human partial length PRKD1 (G551 to E870 residues) expressed in bacterial expression system assessed as residual binding level at 1 uM by Kinomescan method relative to control
[21] = test system: Proto-oncogene tyrosine-protein kinase receptor Ret (Homo sapiens), P07949 [V804M]; experiment: Binding affinity to human partial length RET V804M mutant (E713 to D1014 residues) expressed in bacterial expression system assessed as residual binding level at 1 uM by Kinomescan method relative to control
[22] = biological target: Serine/threonine-protein kinase Sgk3 (Homo sapiens) (UniProt Q96BR1); experiment: Binding affinity to wild-type human partial length SGK3 (M119 to L496 residues) expressed in mammalian expression system assessed as residual binding level at 1 uM by Kinomescan method relative to control
[23] = biological target: SRSF protein kinase 1 (Homo sapiens) (UniProt Q96SB4); experiment: Binding affinity to wild-type human full length SRPK1 (M1 to S655 residues) expressed in bacterial expression system assessed as residual binding level at 1 uM by Kinomescan method relative to control
[24] = biological target: Serine/threonine-protein kinase TAO1 (Homo sapiens) (UniProt Q7L7X3); experiment: Binding affinity to wild-type human partial length TAOK1 (M1 to A320 residues) expressed in mammalian expression system assessed as residual binding level at 1 uM by Kinomescan method relative to control

Sequence of Mitogen-activated protein kinase kinase kinase 5 (Homo sapiens) (Q99683 whole entry, the tested form may be a part): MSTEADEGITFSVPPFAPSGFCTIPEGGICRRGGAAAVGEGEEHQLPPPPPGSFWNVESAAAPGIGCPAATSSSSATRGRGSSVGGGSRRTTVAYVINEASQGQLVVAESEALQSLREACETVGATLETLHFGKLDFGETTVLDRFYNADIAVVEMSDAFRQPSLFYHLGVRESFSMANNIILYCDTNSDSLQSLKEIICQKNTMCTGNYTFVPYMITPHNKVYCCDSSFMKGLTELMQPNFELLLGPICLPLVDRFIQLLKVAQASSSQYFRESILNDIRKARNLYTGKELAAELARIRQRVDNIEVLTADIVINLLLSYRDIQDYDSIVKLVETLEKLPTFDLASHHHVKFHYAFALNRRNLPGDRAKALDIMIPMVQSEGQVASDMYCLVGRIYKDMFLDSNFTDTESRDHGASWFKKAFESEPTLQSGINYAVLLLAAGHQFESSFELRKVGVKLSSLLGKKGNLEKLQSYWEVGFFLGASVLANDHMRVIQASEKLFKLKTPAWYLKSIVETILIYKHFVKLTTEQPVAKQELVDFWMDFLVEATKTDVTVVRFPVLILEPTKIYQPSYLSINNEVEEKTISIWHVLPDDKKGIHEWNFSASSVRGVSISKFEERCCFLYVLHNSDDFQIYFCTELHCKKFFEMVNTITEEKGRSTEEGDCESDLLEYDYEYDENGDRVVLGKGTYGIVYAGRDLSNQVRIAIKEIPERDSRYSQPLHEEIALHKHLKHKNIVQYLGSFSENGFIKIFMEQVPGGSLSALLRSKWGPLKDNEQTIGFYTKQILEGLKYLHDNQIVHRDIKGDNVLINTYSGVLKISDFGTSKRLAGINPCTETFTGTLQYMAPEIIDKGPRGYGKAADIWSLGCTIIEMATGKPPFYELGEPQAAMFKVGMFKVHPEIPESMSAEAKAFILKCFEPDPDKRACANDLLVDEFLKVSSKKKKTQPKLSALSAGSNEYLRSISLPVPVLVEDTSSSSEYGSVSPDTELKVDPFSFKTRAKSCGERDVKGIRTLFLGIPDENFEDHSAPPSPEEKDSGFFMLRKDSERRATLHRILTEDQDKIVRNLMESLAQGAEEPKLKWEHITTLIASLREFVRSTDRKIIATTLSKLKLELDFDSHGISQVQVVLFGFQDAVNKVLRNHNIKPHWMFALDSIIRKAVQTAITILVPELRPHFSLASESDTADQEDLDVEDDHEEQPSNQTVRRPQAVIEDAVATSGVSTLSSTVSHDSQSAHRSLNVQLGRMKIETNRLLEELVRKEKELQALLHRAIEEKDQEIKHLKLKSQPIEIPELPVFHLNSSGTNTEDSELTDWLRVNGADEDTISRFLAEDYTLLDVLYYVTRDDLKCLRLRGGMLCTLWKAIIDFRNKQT
Sequence of Proto-oncogene tyrosine-protein kinase receptor Ret (Homo sapiens), P07949 [V804M] (P07949 whole entry V804M, the tested form may be a part): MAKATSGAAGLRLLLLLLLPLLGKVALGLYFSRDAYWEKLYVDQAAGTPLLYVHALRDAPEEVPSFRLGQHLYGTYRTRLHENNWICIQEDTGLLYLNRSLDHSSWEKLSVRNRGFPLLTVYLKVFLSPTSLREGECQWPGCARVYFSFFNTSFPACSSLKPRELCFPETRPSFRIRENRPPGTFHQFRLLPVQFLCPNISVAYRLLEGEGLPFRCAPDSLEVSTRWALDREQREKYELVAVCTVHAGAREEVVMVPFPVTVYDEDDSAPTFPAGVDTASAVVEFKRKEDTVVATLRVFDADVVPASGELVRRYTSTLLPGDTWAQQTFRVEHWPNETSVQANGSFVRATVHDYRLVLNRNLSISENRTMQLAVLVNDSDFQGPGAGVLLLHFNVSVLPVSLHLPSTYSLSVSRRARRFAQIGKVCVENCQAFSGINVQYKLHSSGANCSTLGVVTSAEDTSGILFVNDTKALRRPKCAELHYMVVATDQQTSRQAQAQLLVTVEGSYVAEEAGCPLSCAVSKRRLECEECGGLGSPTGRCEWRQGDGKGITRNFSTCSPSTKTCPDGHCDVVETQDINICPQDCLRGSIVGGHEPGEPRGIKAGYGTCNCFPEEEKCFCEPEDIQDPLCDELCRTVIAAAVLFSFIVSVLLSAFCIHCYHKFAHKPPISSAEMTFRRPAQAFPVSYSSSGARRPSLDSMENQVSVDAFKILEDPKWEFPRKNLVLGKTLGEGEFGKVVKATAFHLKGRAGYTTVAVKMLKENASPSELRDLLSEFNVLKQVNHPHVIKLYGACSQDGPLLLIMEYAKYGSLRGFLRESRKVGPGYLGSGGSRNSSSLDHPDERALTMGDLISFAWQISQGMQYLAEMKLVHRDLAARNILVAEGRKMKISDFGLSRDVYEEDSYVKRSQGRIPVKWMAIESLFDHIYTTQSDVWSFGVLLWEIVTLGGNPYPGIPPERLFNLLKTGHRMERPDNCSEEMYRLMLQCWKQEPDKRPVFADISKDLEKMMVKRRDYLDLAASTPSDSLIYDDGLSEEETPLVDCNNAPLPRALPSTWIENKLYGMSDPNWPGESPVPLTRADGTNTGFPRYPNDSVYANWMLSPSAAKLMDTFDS
Sequence of Serine/threonine-protein kinase DCLK3 (Homo sapiens) (Q9C098 whole entry, the tested form may be a part): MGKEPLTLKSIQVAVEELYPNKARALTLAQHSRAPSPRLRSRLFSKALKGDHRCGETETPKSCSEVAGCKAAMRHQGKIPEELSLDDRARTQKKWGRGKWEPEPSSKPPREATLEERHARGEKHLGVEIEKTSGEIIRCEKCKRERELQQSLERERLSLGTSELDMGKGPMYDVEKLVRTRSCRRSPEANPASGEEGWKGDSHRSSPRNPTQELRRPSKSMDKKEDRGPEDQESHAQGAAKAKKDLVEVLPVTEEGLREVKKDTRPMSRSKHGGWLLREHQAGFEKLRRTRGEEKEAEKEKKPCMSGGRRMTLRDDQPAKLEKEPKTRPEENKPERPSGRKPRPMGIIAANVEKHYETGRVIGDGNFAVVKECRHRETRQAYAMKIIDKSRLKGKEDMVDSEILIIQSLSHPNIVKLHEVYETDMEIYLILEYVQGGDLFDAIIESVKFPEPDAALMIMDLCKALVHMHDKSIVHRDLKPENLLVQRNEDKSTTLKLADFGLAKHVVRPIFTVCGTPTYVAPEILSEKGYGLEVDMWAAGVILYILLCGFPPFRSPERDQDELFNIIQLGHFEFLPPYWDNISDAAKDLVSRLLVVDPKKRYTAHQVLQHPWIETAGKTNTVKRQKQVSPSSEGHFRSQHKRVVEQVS
Sequence of Phosphatidylinositol 4,5-bisphosphate 3-kinase catalytic subunit alpha isoform (Homo sapiens), P42336 [C420R] (P42336 whole entry C420R, the tested form may be a part, canonical isoform): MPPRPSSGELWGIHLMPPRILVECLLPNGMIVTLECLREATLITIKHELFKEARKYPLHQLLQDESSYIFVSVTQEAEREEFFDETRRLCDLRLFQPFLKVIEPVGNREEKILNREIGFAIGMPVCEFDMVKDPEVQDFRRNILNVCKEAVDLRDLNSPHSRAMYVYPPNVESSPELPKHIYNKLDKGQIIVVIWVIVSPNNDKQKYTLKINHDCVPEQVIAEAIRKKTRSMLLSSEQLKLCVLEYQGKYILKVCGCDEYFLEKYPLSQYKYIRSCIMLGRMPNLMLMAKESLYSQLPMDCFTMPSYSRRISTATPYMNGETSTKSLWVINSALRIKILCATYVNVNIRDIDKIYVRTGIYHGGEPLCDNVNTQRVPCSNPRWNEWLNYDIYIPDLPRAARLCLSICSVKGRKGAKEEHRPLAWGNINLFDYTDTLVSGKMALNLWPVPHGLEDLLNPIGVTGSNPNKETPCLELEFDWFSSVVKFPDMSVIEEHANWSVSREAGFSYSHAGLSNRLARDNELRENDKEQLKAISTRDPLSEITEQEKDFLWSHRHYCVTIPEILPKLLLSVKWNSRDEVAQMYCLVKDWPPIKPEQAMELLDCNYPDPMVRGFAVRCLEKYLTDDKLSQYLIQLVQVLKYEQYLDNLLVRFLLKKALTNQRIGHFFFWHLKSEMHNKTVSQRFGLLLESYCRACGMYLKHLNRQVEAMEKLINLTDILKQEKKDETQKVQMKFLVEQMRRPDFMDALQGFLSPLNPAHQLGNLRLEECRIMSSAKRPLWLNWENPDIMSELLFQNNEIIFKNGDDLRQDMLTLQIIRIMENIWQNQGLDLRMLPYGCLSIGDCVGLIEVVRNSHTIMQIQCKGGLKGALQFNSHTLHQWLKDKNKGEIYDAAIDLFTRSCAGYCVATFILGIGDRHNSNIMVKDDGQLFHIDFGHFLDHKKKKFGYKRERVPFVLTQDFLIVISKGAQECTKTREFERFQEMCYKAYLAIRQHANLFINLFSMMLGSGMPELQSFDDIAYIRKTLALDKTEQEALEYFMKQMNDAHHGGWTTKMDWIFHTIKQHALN
Sequence of Interleukin-1 receptor-associated kinase 4 (Homo sapiens) (Q9NWZ3 whole entry, the tested form may be a part): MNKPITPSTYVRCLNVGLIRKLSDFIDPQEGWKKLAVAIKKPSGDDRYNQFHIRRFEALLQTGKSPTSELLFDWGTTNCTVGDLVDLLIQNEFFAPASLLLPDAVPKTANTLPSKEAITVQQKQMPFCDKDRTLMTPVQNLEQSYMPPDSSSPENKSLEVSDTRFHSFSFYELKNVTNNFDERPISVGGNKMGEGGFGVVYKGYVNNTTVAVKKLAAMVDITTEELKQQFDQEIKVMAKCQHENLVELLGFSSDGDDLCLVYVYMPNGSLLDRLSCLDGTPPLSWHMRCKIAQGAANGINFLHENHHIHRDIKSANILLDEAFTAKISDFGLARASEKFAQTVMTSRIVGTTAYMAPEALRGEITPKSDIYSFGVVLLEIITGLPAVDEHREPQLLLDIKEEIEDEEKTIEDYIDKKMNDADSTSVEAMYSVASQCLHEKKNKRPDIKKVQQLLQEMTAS

With CC(C)Nc1sc(C(=O)c2ccc(Cl)s2)c(N)c1C#N the Activity [1] was 100%, the Activity [2] was 100% and the Activity [3] was 58%. It also gave an Activity [4] of 88%, an Activity [5] of 100% and an Activity [6] of 89%. For the same compound, the Activity [7] was 100%, the Activity [8] was 99% and the Activity [9] was 100%. For the same compound, the Activity [10] was 46%, the Activity [11] was 65% and the Activity [12] was 73%. For the same compound, the Activity [13] was 100%, the Activity [14] was 71% and the Activity [15] was 87%. It also gave an Activity [16] of 100%, an Activity [17] of 100% and an Activity [18] of 86%. The Activity [19] was 73%, the Activity [20] was 97% and the Activity [21] was 94%. For the same compound, the Activity [22] was 100%, the Activity [23] was 100% and the Activity [24] was 100%.
